From patent US7923465B2, “Cannabinoid receptor ligands, pharmaceutical compositions containing them, and process for their preparation” (priority 2005, dated 2011)

What was measured:
hCB2 = hCB2 (Homo sapiens, UniProt P34972); assay: In vitro binding assay using hCB2-CHO membranes, [3H]-CP-55,940 displacement (Protocol IV); set-up: expressed in transfected cells; host or cells: CHO (hCB2-CHO, generated in-house); settings: 1 h; hCB2-CHO membranes, [3H]-CP-55,940 displacement; read-out: % Displacement Protocol IV
Chain of hCB2 (P34972 whole entry): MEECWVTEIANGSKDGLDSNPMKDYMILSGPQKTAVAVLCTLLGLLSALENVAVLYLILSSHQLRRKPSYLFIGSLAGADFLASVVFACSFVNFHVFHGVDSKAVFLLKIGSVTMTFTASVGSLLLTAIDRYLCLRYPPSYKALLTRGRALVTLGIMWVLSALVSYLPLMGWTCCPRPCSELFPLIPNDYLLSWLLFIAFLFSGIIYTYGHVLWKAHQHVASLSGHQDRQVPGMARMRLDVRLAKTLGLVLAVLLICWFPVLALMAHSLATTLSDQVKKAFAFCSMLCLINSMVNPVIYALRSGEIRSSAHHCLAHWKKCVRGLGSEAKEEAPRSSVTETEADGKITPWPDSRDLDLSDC
How it was run: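 Displacement of [3H]-CP-55,940 (0.75 nM) from membranes of CHO cells expressing human CB2 (25-50 μg) was measured in Tris-BSA buffer pH 7.4 with 5 mM MgCl2, 1 mM EDTA, 0.1% BSA, 1 h at 30 °C. Test compounds were at 300 nM final; nonspecific binding defined with 0.5 μM CP-55,940. Values are % displacement of specific binding.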

CB1 = CB1 (Rattus norvegicus, UniProt P20272); assay: Rat CB1 receptor binding using brain membrane, [3H]SR141716A displacement (Protocol I); set-up: CB1 receptor present in a rat brain membrane preparation; from tissue; host or cells: rat brain membrane; inhibition: dose or concentration left out as unconfirmed; settings: 1 h; rat brain membrane, [3H]SR141716A displacement; read-out: % Displacement Protocol I
Chain of CB1 (P20272 whole entry): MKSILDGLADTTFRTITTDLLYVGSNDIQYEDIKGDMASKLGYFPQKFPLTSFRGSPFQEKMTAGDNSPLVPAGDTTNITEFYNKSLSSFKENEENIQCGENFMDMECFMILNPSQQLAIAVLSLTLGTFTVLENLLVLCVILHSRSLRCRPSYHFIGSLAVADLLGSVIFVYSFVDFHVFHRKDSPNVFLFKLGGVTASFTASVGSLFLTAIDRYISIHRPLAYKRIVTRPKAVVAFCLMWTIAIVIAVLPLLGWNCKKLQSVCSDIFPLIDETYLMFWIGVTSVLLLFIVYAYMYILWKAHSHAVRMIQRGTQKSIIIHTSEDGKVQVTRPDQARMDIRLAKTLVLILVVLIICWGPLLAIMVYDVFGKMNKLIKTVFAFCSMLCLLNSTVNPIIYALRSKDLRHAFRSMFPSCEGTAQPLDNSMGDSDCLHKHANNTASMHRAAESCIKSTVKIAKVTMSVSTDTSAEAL
Method: I. In Vitro Protocol for Rat CB1 Receptor Binding Using Brain Membrane
In this assay, [^3H]SR141716A (5-(4-chlorophenyl)-1-(2,4-dichlorophenyl)-4-methyl-N-(1-piperidyl)pyrazole-3-carboxamide) was used to bind the CB1 receptor present in a rat brain membrane preparation which can be displaced by unlabeled ligands having affinity to the CB1 receptor.
The assay was performed according to the modified method of Thomas et al., 1998 (JPET 285: 285-292). The total reaction mixture ([…]) contained Tris-BSA buffer (50 mM Tris, pH 7.4 with 1.5% BSA) or unlabeled SR141716A […] or test samples […], [^3H] SR141716A (2 nM) and […] of rat brain membrane. The non-specific binding was defined by […] of SR141716A. The assay mixture was incubated at 37° C. for 1 hour. The reaction was then stopped by rapid filtration under vacuum using Whatman GF/B-96 micro filter plate. A scintillation cocktail was added and radioactive counts were measured using a Topcount beta scintillation counter.
The standard and test sample dilutions were made in an assay buffer containing either ethanol or DMSO at a final concentration of 1%.
The percent (%) displacement by a test ligand was calculated by comparing the specific bound values.

Structure (SMILES)	melting point [°C]	inhibition at 0.3 µM (hCB2) [%]	inhibition (CB1) [%]
O=C(NCC1CCCCC1)c1nn(-c2ccc(Cl)cc2)c2c1C1CC3CC(C1)CC2C3 [Example 108, N(7)-Cyclohexylmethyl-5-(4-chlorophenyl)-5,6-diazatetracyclo[7.3.1.1^3,11.0^4,8]tetradeca-4(8),6-diene-7-carboxamide]	117	37.1	82.5
O=C(NCc1ccccn1)c1nn(-c2ccc(Cl)cc2)c2c1C1CC3CC(C1)CC2C3 [Example 120, N(7)-(2-Pyridylmethyl)-5-(4-chlorophenyl)-5,6-diazatetracyclo[7.3.1.1^3,11.0^4,8]tetradeca-4(8),6-diene-7-carboxamide]	187	9.18	30.4
O=C(NN(c1ccc(Cl)cc1Cl)C1CCCCC1)c1nn(-c2ccc(Cl)cc2)c2c1C1CC3CC(C1)CC2C3 [Example 129, N(7)-(2,4-Dichlorophenyl-N′-cyclohexylamino)-5-(4-chlorophenyl)-5,6-diazatetracyclo[7.3.1.1^3,11.0^4,8]tetradeca-4(8),6-diene-7-carboxamide]	95 to 96	62.9	65.2
O=C(NNc1ccc(Cl)cn1)c1nn(-c2ccc(Cl)cc2)c2c1C1CC3CC(C1)CC2C3 [Example 135, N(7)-(5-Chloro-2-pyridylamino)-5-(4-chlorophenyl)-5,6-diazatetracyclo[7.3.1.1^3,11.0^4,8]tetradeca-4(8),6-diene-7-carboxamide]	130 to 135	6.48	20.5
Cc1ccc(-n2nc(C(=O)NN3CCCCC3)c3c2C2CC4CC(CC3C4)C2)cc1 [Example 160, N(7)-Piperidino-5-(4-methylphenyl)-5,6-diazatetracyclo[7.3.1.1^3,11.0^4,8]tetradeca-4(8),6-diene-7-carboxamide]	228 to 232	20.8	10
Cc1ccc(-n2nc(C(=O)NNc3ccc(Cl)cc3Cl)c3c2C2CC4CC(CC3C4)C2)cc1 [Example 161, N(7)-(2,4-Dichlorophenylamino)-5-(4-methylphenyl)-5,6-diazatetracyclo[7.3.1.1^3,11.0^4,8]tetradeca-4(8),6-diene-7-carboxamide]	208 to 215	39.4	27.9
COc1ccc(-n2nc(C(=O)NCc3ccccc3Cl)c3c2C2CC4CC(CC3C4)C2)cc1 [Example 164, N7-(2-Chlorobenzyl)-5-(4-methoxyphenyl)-5,6-diazatetracyclo[7.3.1.1^3,11.0^4,8]tetradeca-4(8),6-diene-7-carboxamide]	178	13.2	8.2
COc1ccc(-n2nc(C(=O)NNc3ccc(Cl)cc3Cl)c3c2C2CC4CC(CC3C4)C2)cc1 [Example 165, N(7)-(2,4-Dichlorophenylamino)-5-(4-methoxyphenyl)-5,6-diazatetracyclo[7.3.1.1^3,11.0^4,8]tetradeca-4(8),6-diene-7-carboxamide]	199	45.3	14.2
O=C(NNc1ccc(Cl)cc1Cl)c1nn(-c2ccccc2)c2c1C1CC3CC(C1)CC2C3 [Example 167, N(7)-[(2,4-Dichlorophenyl)amino]-5-phenyl-5,6-diazatetracyclo[7.3.1.1^3,11.0^4,8]tetradeca-4(8),6-diene-7-carboxamide]	166 to 170	24.6	61.3
O=C(NNc1ccc(Cl)cc1Cl)c1nn(-c2ccc(Cl)cc2Cl)c2c1C1CC3CC(C1)CC2C3 [Example 175, N(7)-(2,4-Dichlorophenylamino)-5-(2,4-dichlorophenyl)-5,6-diazatetracyclo[7.3.1.1^3,11.0^4,8]tetradeca-4(8),6-diene-7-carboxamide]	153 to 156	18.5	66
O=C(NNc1ccccc1Br)c1nn(-c2ccc(Cl)cc2Cl)c2c1C1CC3CC(C1)CC2C3 [Example 176, N(7)-(2-Bromophenylamino)-5-(2,4-dichlorophenyl)-5,6-diazatetracyclo[7.3.1.1^3,11.0^4,8]tetradeca-4(8),6-diene-7-carboxamide]	196 to 199	30.5	65.6
O=C(NN1CCCCC1)c1nn(-c2ccccc2)c2c1C1CCC2C1 (stereo not drawn) [Example 201, N(3)-Piperidino-1-phenyl-4,5,6,7-tetrahydro-1H-4,7-methano-indazole-3-carboxamide]	144	19.8	9
O=C(NNc1ccccc1)c1n[nH]c2c1C1(c3ccccc3)CCC2C1 (stereo not drawn) [Example 204, N(3)-Phenylamino-4-phenyl-4,5,6,7-tetrahydro-1H-4,7-methano-indazole-3-carboxamide]	189	10.5	-10.3
O=C(NN1CCCCC1)c1nn(-c2ccccc2Cl)c2c1C1CCC2C1 (stereo not drawn) [Example 205, N(3)-Piperidino-1-(2-chlorophenyl)-4,5,6,7-tetrahydro-1H-4,7-methano-indazole-3-carboxamide]	232	15.9	-12.7
O=C(NNc1ccccc1)c1nn(-c2ccccc2Cl)c2c1C1CCC2C1 (stereo not drawn) [Example 208, N(3)-Phenylamino-1-(2-chlorophenyl)-4,5,6,7-tetrahydro-1H-4,7-methano-indazole-3-carboxamide]	205	0	-1.2
O=C(NN1CCCCC1)c1nn(-c2ccc(Cl)cc2)c2c1C1CCC2C1 (stereo not drawn) [Example 209, N(3)-Piperidino-1-(4-chlorophenyl)-4,5,6,7-tetrahydro-1H-4,7-methano-indazole-3-carboxamide]	78 to 81	50.5	23.5
O=C(Nc1ccccc1)c1nn(-c2ccc(Cl)cc2)c2c1C1CCC2C1 (stereo not drawn) [Example 214, N(3)-Phenyl-1-(4-chlorophenyl)-4,5,6,7-tetrahydro-1H-4,7-methano-indazole-3-carboxamide]	137 to 140	41.3	10.1
O=C(Nc1ccc(Cl)cc1)c1nn(-c2ccc(Cl)cc2)c2c1C1CCC2C1 (stereo not drawn) [Example 216, N(3)-(4-Chlorophenyl)-1-(4-chlorophenyl)-4,5,6,7-tetrahydro-1H-4,7-methano-indazole-3-carboxamide]	182 to 184	20.7	32.2
O=C(NCc1ccccc1)c1nn(-c2ccc(Cl)cc2)c2c1C1CCC2C1 (stereo not drawn) [Example 220, N(3)-Benzyl-1-(4-chlorophenyl)-4,5,6,7-tetrahydro-1H-4,7-methano-indazole-3-carboxamide]	112 to 115	25.3	29.5
O=C(NCc1ccc(Cl)cc1)c1nn(-c2ccc(Cl)cc2)c2c1C1CCC2C1 (stereo not drawn) [Example 222, N(3)-(4-Chlorobenzyl)-1-(4-chlorophenyl)-4,5,6,7-tetrahydro-1H-4,7-methano-indazole-3-carboxamide]	157 to 160	15.7	39.4
